Data published in patent US6551796B1, “Nucleic acid encoding urate transporter and methods of use thereof” (Mount Sinai School of Medicine, priority 1997, dated 2003).
Values belong to the molecule of their own block, whether it stands above or below them.

Assays:
Type in all cases: biochemical
[1] = biological target: T1, recombinant UAT (urate transporter/channel) (Rattus norvegicus, UniProt P97840, L187H); experiment: Channel activity of recombinant rat UAT reconstituted in planar lipid bilayer (patch clamp recording); conditions: for effect on channel activity, cis (cytoplasmic) side: agent added to cis chamber / cytoplasmic side of UAT; for concentration that completely blocked channel activity: agent in trans chamber (extracellular side of UAT); for reversibility of block of channel activity: replacing the agent-containing solution with agent-free urate solution
T1 construct: 6-histidine metal chelating domain (pRSET A leader) (N); made in house; host or cells: E. coli BL21(DE3)pLysE, vector pRSET A
T1 sequence (P97840 1-322 isoform P97840-2 L155H): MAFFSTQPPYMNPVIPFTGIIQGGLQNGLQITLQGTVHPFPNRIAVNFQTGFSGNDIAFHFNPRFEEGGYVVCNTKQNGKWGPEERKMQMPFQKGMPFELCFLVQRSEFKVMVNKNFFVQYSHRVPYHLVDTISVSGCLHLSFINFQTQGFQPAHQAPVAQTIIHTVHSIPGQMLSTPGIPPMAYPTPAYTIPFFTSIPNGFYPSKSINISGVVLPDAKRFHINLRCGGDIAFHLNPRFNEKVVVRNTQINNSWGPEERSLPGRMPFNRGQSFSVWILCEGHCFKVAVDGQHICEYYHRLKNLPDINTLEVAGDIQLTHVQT
Experimental: (§1) A mixture of bovine phosphatidyl-ethanolamine (PE, 10 mg/ml), and phosphatidylserine (PS, 10 mg/ml) (Avanti Polar Lipids, Birmingham. Ala.) in a ratio of 1:1 (wt/wt) was evaporated to dryness under nitrogen. The resultant phospholipid pellet was suspended in 48 μl of a solution containing 220 mM KCl, CsCl or Cs2SO4 and 10 mM HEPES-NaOH at pH 7.4. Following the addition of 2 μl recombinant UAT protein (50-100 μg/ml), proteoliposomes were formed by sonicating the mixture for 30 sec at 80 kHz in a bath sonicator (Laboratory Supplies, Hicksville, N.Y.) as described by Leal-Pinto et al. (1995) J. Membrane Biol. 146:123. In some experiments, proteoliposomes were prepared with the same lipids but with 10 μl recombinant HIV-1 Tat protein, as described by Zagury et al. (1996) Cellular Pharm.—AIDS Sciences 3:97 at 380 μg/ml and 40 μl of 220 mM Cs2SO4, 10 mM HEPES-NaOH at pH 7.4. Fresh proteoliposomes were prepared for each experiment.
(§2) The lipid bilayer chamber was identical to that described by Leal-Pinto et al. (1995) J. Membrane Biol. 146:123. The two cups of the plexiglass bilayer chamber were each initially filled with 1 ml of a solution whose electrolyte composition was identical to that in which the proteoliposomes were prepared. A 1:1 (wt/wt) mixture of bovine brain PE (10 mg/ml) and PS (10 mg/ml) (Avanti Polar Lipids) was dried with a nitrogen stream, dissolved in decane (Sigma Chemical Co.) to 50 mg lipid/ml and then painted with a club-shaped glass rod onto a 50 um hole in a Teflon film (Type C-20, 12.5 um thick, Dupont Electronics, Wilmington, Del.) that was fitted between the two cups of the chamber. Offset potentials due to all junction potentials were corrected by using the zero adjust system of the patch clamp amplifier (Model PC-501, Warner Instrument Co.). The voltage was subsequently clamped at varying levels (−100 to +100 mV): voltage was generated and controlled by the patch clamp amplifier. If a stable resistance of at least 100 gigohms and a noise of less than 0.2 pA were maintained, the experiments were initiated.
(§3) Experiments were initiated by adding proteoliposomes to the trans chamber (1 μl of UAT or 5-50 μl of HIV-1 Tat proteoliposomes). The solution was stirred until fusion occurred. Fusion usually occurred within 2-3 minutes of the addition of UAT-containing proteoliposomes, evidenced by the presence of channel gating (clear transitions between the closed and open states). Once fusion occurred the stirrers were stopped and the solution in the trans chamber was replaced with 1 ml of an identical solution, without proteoliposomes, to limit further channel incorporation. In all experiments channel activity was initially evaluated in the presence of symmetrical solutions of 2.5 mM urate in either 220 mM KCl, CsCl, or Cs2SO4, 10 mM HEPES-NaOH, and 0.25 mM CaCl2 at pH 7.4. In some experiments channel activity was compared in the absence and presence of 5 mM Ba^+−. To evaluate channel selectivity, experiments were performed in symmetrical solutions of 2.5 mM urate, but with infinite gradients of K^+, Cs^−, Ca^−−, Cl^− and/or SO4^═ established by using the following combination of buffered solutions in the cis and trans chambers, respectively: a) CsCl and KCl, b) Cs2SO4 and CsCl, and c) Cs2SO4 with Ca^−+ and Cs2SO4 without Ca^−+. Selectivity was also evaluated in symmetrical solutions of 220 mM Cs2SO4, 10 mM HEPES-NaOH, and 0.25 mM CaCl2 at pH 7.4 in the presence of a 10:1 urate gradient: the 2.5 mM urate, buffered Cs2SO4 solution in the trans chamber was replaced with a Cs2SO4 solution containing 0.25 mM urate. In a final group of experiments, channel activity was compared in symmetrical solutions of 2.5 mM urate, 220 mM Cs2SO4, 10 mM HEPES-NaOH, and 0.25 mM CaCl2 at pH 7.4 before and after an increasing amount of non-immune IgG (up to 200 μg) or the IgG fraction of antiporcine uricase (up to 15 μg) was sequentially added to each side of the lipid bilayer. […]

[2] = biological target: T2, hUAT (human urate transporter/channel, galectin 9) (Homo sapiens, UniProt O00182); experiment: Channel activity of recombinant human UAT (galectin 9) reconstituted in lipid bilayer
T2 construct: 6-histidine tag (N); made in house
T2 sequence (O00182 1-323 isoform O00182-2): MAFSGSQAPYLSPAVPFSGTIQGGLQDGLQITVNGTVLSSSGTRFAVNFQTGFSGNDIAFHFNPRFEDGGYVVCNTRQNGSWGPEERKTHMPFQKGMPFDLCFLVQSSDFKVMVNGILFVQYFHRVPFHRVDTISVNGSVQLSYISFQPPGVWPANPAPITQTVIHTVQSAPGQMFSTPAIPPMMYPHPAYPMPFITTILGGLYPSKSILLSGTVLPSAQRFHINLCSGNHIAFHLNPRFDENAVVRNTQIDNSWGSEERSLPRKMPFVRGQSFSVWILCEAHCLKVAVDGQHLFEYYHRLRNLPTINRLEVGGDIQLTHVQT
Experimental: Galactin 9 was reported to be a secreted neutrophil chemoattractant. However, galectin 9 has more than 75% amino acid homology to the rat urate transporter/channel. To test whether galectin 9 is the human plasma membrane-associated urate transporter channel, cDNA was generated by RT-PCR of RNA from WBC of a normal donor and fused with an amino terminal 6-histidine tag in a bacterial expression vector. Recombinant protein (hUAT) was prepared and then purified on a Ni-NTA column. hUTA was sonicated into liposomes, fused with a lipid bilayed, and channel activity was recorded. Channel activity was only detected in the presence of urate. […] This difference in voltage sensitivity is consistent with the absence of a positively charged amino acid in hUAT in a region of the putative voltage sensing loop within rat UAT.
In a continued search for local blocks of homology between rat and human UAT and known proteins, a highly significant block of homology to copper chaperones was detected in the carboxy terminus of both the rat and human UAT. Based on the possibility that this portion of UAT binds copper, like copper chaperones, experiments were conducted to determine whether copper was able to modulate UAT channel activity. Using rat and human recombinant UAT it was observed that copper plays an important role in modulating channel activity.
The rat and human urate transporter/channel amino acid sequence contains two galactose binding sites. In the molecular model of the urate transporter/channel, both of these sites reside in extracellular domains of the protein. One site is located between the putative first and second transmembrane domain, the second is located between the putative third and fourth transmembrane domains. Experiments indicate that the addition of lactose (less than 50 μM) to the side of the bilayer chamber that is believed to face the extracellular domains of the protein alters the biophysical properties of the human urate transporter channel. […] In vivo, this could result in increased urate excretion and ultimately a reduction in plasma urate concentration.

[3] = biological target: T3, recombinant UAT (urate transporter/channel) (Rattus norvegicus, UniProt P97840); experiment: Channel activity of recombinant rat UAT reconstituted in planar lipid bilayer (patch clamp recording); conditions: 2.5 mM urate cis : 2.5 mM oxonate trans
T3 construct: 6-histidine metal chelating domain (pRSET A leader) (N); made in house; host or cells: E. coli BL21(DE3)pLysE, vector pRSET A
T3 sequence (P97840 1-322 isoform P97840-2 L155H): as the sequence (P97840 1-322 isoform P97840-2 L155H) above
Experimental: as §1, §2, §3

[4] = less than 1 μM copper added to the bathing solution
[5] = less than 50 μM on the side facing the extracellular domains

Structure (SMILES): Nc1ncnc2c1ncn2[C@@H]1O[C@H](CO)[C@@H](O)[C@H]1O [adenosine]
effect on channel activity, cis (cytoplasmic) side [1]: failed to block channel activity | concentration that completely blocked channel activity ([1]; mean±SE): 4.6 ± 2.6 µM | effect on channel activity from the trans side of the bilayer [2]: blocked channel activity

Structure (SMILES): [Cu] [copper]
effect on channel activity [1, 4]: significantly increases channel activity | effect on channel activity [2, 4]: significantly increases channel activity | open probability of the human channel after addition ([2]; less than 1 μM copper, from 5-15% before addition): 50-60%

Structure (SMILES): OC[C@H]1O[C@@H](O[C@H]2[C@H](O)[C@@H](O)C(O)O[C@@H]2CO)[C@H](O)[C@@H](O)[C@H]1O (some centres unmarked) [lactose]
effect on current [2, 5]: increase in current | effect on stability of the channel in the lipid bilayer [2, 5]: apparent stabilization of the channel

Structure (SMILES): [Ba+2] [Ba^+−]
effect on channel activity ([1]; 5 mM, symmetrical 2.5 mM urate and 220 mM KCl): failed to alter channel activity

More lines, now with the values ahead:

effect on channel activity, cis (cytoplasmic) side [1]: blocked channel activity | concentration that completely blocked channel activity ([1]; mean±SE): 4.6 ± 1.5 µM | ratio of blocking concentration, extracellular side versus cytoplasmic face ([1]; complete block of channel activity): approximately one-tenth
Structure (SMILES): O=c1[nH]c(=O)c2[nH]cnc2[nH]1 [xanthine]

channel activity under bi-ionic conditions [3]: ceased after approximately one hour | effect on channel activity, trans side ([1]; 250 μM on the trans side of the channel, symmetrical urate): not affected | concentration at which channel activity was 97% blocked ([1]; oxonate in cis (cytoplasmic) chamber, symmetrical 2.5 mM urate, mean±SE, n=3): 108 ± 16 µM | reversibility of block of channel activity [1]: reversed
Structure (SMILES): O=C(O)c1nc(=O)[nH]c(=O)[nH]1 [oxonate]

effect on channel activity, cis (cytoplasmic) side [1]: without effect | concentration that completely blocked channel activity ([1]; mean±SE): 24.1 ± 8.9 µM | reversibility of block of channel activity [1]: reversed
Structure (SMILES): O=C(O)c1cnccn1 [PZA, pyrazinoate]

effect on channel activity from the trans side of the bilayer [2]: blocked channel activity
Structure (SMILES): NC(=O)c1cnccn1 [pyrazinamide]
